Reference: the NIST ThermoML archive (doi:10.1021/je050141m)

Conditions: Liquid, Ebulliometric method (Recirculating still)

CCCCCCO [hexan-1-ol]
Conditions | vapor or sublimation pressure [kPa]
391.07 K | 25
395.62 K | 30
399.65 K | 35
403.15 K | 40
406.36 K | 45
409.25 K | 50
411.92 K | 55
414.44 K | 60
416.75 K | 65
418.98 K | 70
421.05 K | 75
423.01 K | 80
424.87 K | 85
426.69 K | 90

CCCCCCOC(C)=O [hexyl ethanoate]
Conditions | vapor or sublimation pressure [kPa]
397.97 K | 25
403.36 K | 30
408.02 K | 35
412.14 K | 40
416.02 K | 45
419.47 K | 50
422.59 K | 55
425.57 K | 60
428.26 K | 65
430.93 K | 70
433.38 K | 75
435.68 K | 80
437.92 K | 85
439.98 K | 90
